Source: US20240360067A1, “DERIVATIVES OF ITACONIC ACID AND THEIR USE AS ANTI-INFLAMMATORY AGENTS” (Sitryx Therapeutics Limited, priority 2021, published 2024)

Tests used:
IL-6 = experiment: THP-1 AlphaLISA IL-6 cytokine assay (PMA-differentiated THP-1, LPS then nigericin); format: cell-based; conditions: Homo sapiens; differentiated THP-1 cells; 30 min pre-incubation, LPS 24 hr, nigericin 1 hour
Experimental: (§1) Measuring Inhibitory Effects on IL-1β, and IL-6 Cytokine Output from THP-1s
(§2) The cytokine inhibition profiles of compounds of formula (I) were determined in a differentiated THP-1 cell assay. All assays were performed in RPMI-1640 growth medium (Gibco), supplemented with 10% fetal bovine serum (FBS; Gibco), 1% penicillin-streptomycin and 1% sodium pyruvate unless specified otherwise. The IL-1β and IL-6 cytokine inhibition assays were each run in a background of differentiated THP-1 cells as described below. All reagents described were from Sigma-Aldrich unless specified otherwise. Compounds were prepared as 10 mM DMSO stocks.
(§3) THP-1 cells were expanded as a suspension up to 80% confluence in appropriate growth medium. Cells were harvested, suspended, and treated with an appropriate concentration of phorbol 12-myristate 13-acetate (PMA) over a 72 hr period (37° C./5% CO2).
(§4) Following 72 hrs of THP-1 cell incubation, cellular medium was removed and replaced with fresh growth media containing 1% of FBS. Working concentrations of compounds were prepared separately in 10% FBS treated growth medium and pre-incubated with the cells for 30 minutes (37° C./5% CO2). Following the 30 minute compound pre-incubation, THP-1s were treated with an appropriate concentration of LPS and the THP-1s were subsequently incubated for a 24 hr period (37° C./5% CO2). An appropriate final concentration of Nigericin was then dispensed into the THP-1 plates and incubated for 1 hour (37° C./5% CO2) before THP-1 supernatants were harvested and collected in separate polypropylene 96-well holding plates.
(§5) Reagents from each of the IL-1β and IL-6 commercial kits (Perkin Elmer) were prepared and run according to the manufacturer's instructions. Subsequently, fluorescence signal detection in a microplate reader was measured (EnVision® Multilabel Reader, Perkin Elmer).
(§6) Percentage inhibition was calculated per cytokine by normalizing the sample data to the high and low controls used within each plate (+/−LPS respectively).

IL-1β = experiment: THP-1 AlphaLISA IL-1β cytokine assay (PMA-differentiated THP-1, LPS then nigericin); format: cell-based; conditions: 30 min pre-incubation, LPS 24 hr, nigericin 1 hour
Experimental: as §1, §2, §3, §4, §5, §6

[1] = Hepatocyte stability assay, human; format: in vitro ADME; conditions: 10 μM compound, 0.5×10^6 cells/mL, 60 min; for CIint: Human hepatocytes; for half-life at 10 μM: cryo-preserved hepatocytes, read-out: T½
Description: (§7) Defrosted cryo-preserved hepatocytes (viability >70%) were used to determine the metabolic stability of a compound via calculation of intrinsic clearance (CIint; a measure of the removal of a compound from the liver in the absence of blood flow and cell binding). Clearance data are particularly important for in vitro work as they can be used in combination with in vivo data to predict the half-life and oral bioavailability of a drug.
(§8) The metabolic stability in hepatocytes assay involved a time-dependent reaction using both positive and negative controls. The cells must be pre-incubated at 37° C. then spiked with test compound (and positive control); samples taken at pre-determined time intervals were analysed to monitor the change in concentration of the initial drug compound over 60 minutes. A buffer incubation reaction (with no hepatocytes present) acted as a negative control and two cocktail solutions, containing compounds with known high and low clearance values (verapamil/7-hydroxycoumarin and propranolol/diltiazem), acted as positive controls. • 1. The assay was run with a cell concentration of 0.5×10^6 cells/mL in Leibovitz buffer. • 2. All compounds and controls were run in duplicate. • 3. Compound concentration was 10 μM. • 4. All compounds and controls were incubated with both cells and buffer to show turnover is due to hepatic metabolism. • 5. All wells on the incubation plate had 326.7 μL of either cells or buffer added. • 6. Prior to assay, cell and buffer-only incubation plates were preincubated for 10 mins at 37° C. • 7. The assay was initiated by adding compounds, 3.3 μL of 1 mM in 10% DMSO-90% Buffer; final DMSO concentration is 0.1%. • 8. Samples were taken at regular timepoints (0, 5, 10, 20, 40, 60 min) until 60 mins. • 9. Sample volume was 40 μL and added to 160 μL of crash solvent (acetonitrile with internal standard) and stored on ice. • 10. At the end of the assay, the crash plates were centrifuged at 3500 rpm for 20 mins at 4° C. • 11. 80 μL of clear supernatant was removed and mixed with 80 μL of deionised water before being analysed by LC-MS/MS.
(§9) Raw LC-MS/MS data were exported to, and analysed in, Microsoft Excel for determination of intrinsic clearance. The percentage remaining of a compound was monitored using the peak area of the initial concentration as 100%. Intrinsic clearance and half-life values were calculated using a graph of the natural log of percentage remaining versus the time of reaction in minutes.

NRF2 = NRF2 activation assay (DiscoverX PathHunter NRF2 translocation kit, U2OS cells); format: cell-based; conditions: Homo sapiens; for Emax: U2OS, normalised to dimethyl fumarate high control; for EC50: U2OS PathHunter cells, 6 hours
[2] = Hepatocyte stability assay, mouse; format: in vitro ADME; conditions: 10 μM compound, 0.5×10^6 cells/mL, 60 min; for CIint: Mouse hepatocytes; for half-life at 10 μM: cryo-preserved hepatocytes, read-out: T½
Description: as §7, §8, §9

[3] = Homo sapiens, THP-1, differentiated THP-1 cells

| SMILES | IC50 (IL-6) [µM] | IC50 (IL-1β; [3]) [µM] | IC50 (IL-1β; differentiated THP-1 cells) [µM] | CIint [1] [μL min^−1 10^−6 cells] | half-life at 10 μM [1] [min] | EC50 (NRF2; +GSH) [µM] | EC50 (NRF2; −GSH) [µM] | CIint [2] [μL min^−1 10^−6 cells] | half-life at 10 μM [2] [min] | Emax (NRF2; +GSH) [%] | Emax (NRF2; −GSH) [%] | IC50 (IL-1β; Homo sapiens, differentiated THP-1 cells) [µM] |
| --- | --- | --- | --- | --- | --- | --- | --- | --- | --- | --- | --- | --- |
| C=C(CC(=O)NC1CCOCC1)C(=O)OC1(c2ccc(C(F)(F)F)cc2)CCC1 [Example 20, 1-(4-(trifluoromethyl)phenyl)cyclobutyl 2-methylene-4-oxo-4-((tetrahydro-2H-pyran-4-yl)amino)butanoate] | 2.6 | 2.9 | – | 85 | 18 | 31.4 | 14.4 | 668 | 3 | 63 | 101 | – |
| C=C(CC(=O)NCC(N)=O)C(=O)OC1(c2ccc(C(F)(F)F)cc2)CCC1 [Example 21, 1-(4-(trifluoromethyl)phenyl)cyclobutyl 4-((2-amino-2-oxoethyl)amino)-2-methylene-4-oxobutanoate] | 3.9 | 7.2 | – | 37 | 42 | 55 | 38 | 100 | 21 | 86 | 184 | – |
| C=C(CC(=O)OCC(=O)O)C(=O)OC1(c2ccc(C(F)(F)F)cc2)CCC1 [Example 22, 2-((3-((1-(4-(trifluoromethyl)phenyl)cyclobutoxy)carbonyl)but-3-enoyl)oxy)acetic acid] | > 31.6 | – | – | 7 | 204 | 41.1 | 40 | 392 | 4 | 45 | 100 | 15.2 |
| C/C(=C\C(=O)O)C(=O)OC1(c2ccc(C(F)(F)F)cc2)CCC1 [Example 23, 3-methyl-4-oxo-4-(1-(4-(trifluoromethyl)phenyl)cyclobutoxy)but-2-enoic acid] | > 100 | 4 | – | <3 | > 460 | > 100 | 2.8 | <3 | > 460 | 4 | 39 | – |

More lines, main results first:

| IC50 (IL-6) [µM] | IC50 (IL-1β; [3]) [µM] | IC50 (IL-1β; differentiated THP-1 cells) [µM] | CIint [1] [μL min^−1 10^−6 cells] | half-life at 10 μM [1] [min] | EC50 (NRF2; +GSH) [µM] | EC50 (NRF2; −GSH) [µM] | CIint [2] [μL min^−1 10^−6 cells] | half-life at 10 μM [2] [min] | SMILES | Emax (NRF2; +GSH) [%] | Emax (NRF2; −GSH) [%] | IC50 (IL-1β; Homo sapiens, differentiated THP-1 cells) [µM] |
| --- | --- | --- | --- | --- | --- | --- | --- | --- | --- | --- | --- | --- |
| 8.1 | 6.5 | 8.5 | 126 | 12 | 48 | 38.8 | 516 | 4 | C=C(CC(=O)NCCN1CCOCC1)C(=O)OC1(c2ccc(C(F)(F)F)cc2)CCC1 [Example 13, 1-(4-(trifluoromethyl)phenyl)cyclobutyl 2-methylene-4-((2-morpholinoethyl)amino)-4-oxobutanoate] | 84 | 174 | – |
| 3.9 | 5.2 | – | 40 | 38 | 49.4 | 14.6 | 108 | 12 | C=C(CC(=O)NC1CCN(C)CC1)C(=O)OC1(c2ccc(C(F)(F)F)cc2)CCC1 [Example 14, 1-(4-(trifluoromethyl)phenyl)cyclobutyl 2-methylene-4-((1-methylpiperidin-4-yl)amino)-4-oxobutanoate] | 95 | 80 | – |
| 7.3 | 5.3 | – | 92 | 14 | 51.3 | 26.3 | 508 | 3 | C=C(CC(=O)NCc1ncc[nH]1)C(=O)OC1(c2ccc(C(F)(F)F)cc2)CCC1 [Example 15, 1-(4-(trifluoromethyl)phenyl)cyclobutyl 4-(((1H-imidazol-2-yl)methyl)amino)-2-methylene-4-oxobutanoate] | 86 | 131 | – |
| 3.8 | 5.2 | – | 31 | 52 | 39.4 | 14.7 | 92 | 14 | C=C(CC(=O)NC1CS(=O)(=O)C1)C(=O)OC1(c2ccc(C(F)(F)F)cc2)CCC1 [Example 18, 1-(4-(trifluoromethyl)phenyl)cyclobutyl 4-((1,1-dioxidothietan-3-yl)amino)-2-methylene-4-oxobutanoate] | 70 | 90 | – |
| 3.8 | 2.5 | – | 32 | 48 | 50.7 | 40.2 | 161 | 13 | C=C(CC(=O)NCCO)C(=O)OC1(c2ccc(C(F)(F)F)cc2)CCC1 [Example 19, 1-(4-(trifluoromethyl)phenyl)cyclobutyl 4-((2-hydroxyethyl)amino)-2-methylene-4-oxobutanoate] | 102 | 210 | – |
